{"source": "ChEMBL document CHEMBL2417447", "about": "“Synthesis and binary QSAR study of antitubercular quinolylhydrazides” (2013)", "key": {"[1]": {"system": "Mycobacterium tuberculosis", "assay": "Antimycobacterial activity against Mycobacterium tuberculosis H37Rv ATCC 27294 assessed as growth inhibition at 6.25 ug/ml after 5 to 8 days by microplate alamar blue assay relative to control", "type": "functional", "conditions": "read-out: GI"}, "[2]": {"system": "Mycobacterium tuberculosis", "assay": "Antitubercular activity against Mycobacterium tuberculosis H37Rv ATCC 27294 after 5 to 8 days by microplate alamar blue assay", "type": "functional"}}}
{"molecule": "O=C1Nc2ccccc2C(=O)/C1=N/Nc1ccccc1", "values": [{"measurement": "inhibition of growth at 6.25 µg/mL", "setting": "[1]", "result": 97, "unit": "%"}, {"measurement": "MIC", "setting": "[2]", "result": "< 6.25", "unit": "µg/mL"}]}
{"molecule": "O=C1Nc2cc([N+](=O)[O-])ccc2C(=O)/C1=N/Nc1ccc(Br)cc1", "values": [{"measurement": "inhibition of growth at 6.25 µg/mL", "setting": "[1]", "result": 100, "unit": "%"}, {"measurement": "MIC", "setting": "[2]", "result": "< 6.25", "unit": "µg/mL"}]}
{"molecule": "O=C1Nc2cc([N+](=O)[O-])ccc2C(=O)/C1=N/Nc1ccccc1-c1ccccc1", "values": [{"measurement": "inhibition of growth at 6.25 µg/mL", "setting": "[1]", "result": 100, "unit": "%"}, {"measurement": "MIC", "setting": "[2]", "result": "< 6.25", "unit": "µg/mL"}]}
{"molecule": "Cc1c(Cl)cccc1N/N=C1\\C(=O)Nc2cc([N+](=O)[O-])ccc2C1=O", "values": [{"measurement": "inhibition of growth at 6.25 µg/mL", "setting": "[1]", "result": 98, "unit": "%"}, {"measurement": "MIC", "setting": "[2]", "result": "< 6.25", "unit": "µg/mL"}]}
{"molecule": "O=C1Nc2ccc(Cl)cc2C(=O)/C1=N/Nc1ccc(Cl)cc1", "values": [{"measurement": "inhibition of growth at 6.25 µg/mL", "setting": "[1]", "result": 98, "unit": "%"}, {"measurement": "MIC", "setting": "[2]", "result": "< 6.25", "unit": "µg/mL"}]}
{"molecule": "Cc1cccc(N/N=C2\\C(=O)Nc3c(cccc3[N+](=O)[O-])C2=O)c1", "values": [{"measurement": "inhibition of growth at 6.25 µg/mL", "setting": "[1]", "result": 95, "unit": "%"}, {"measurement": "MIC", "setting": "[2]", "result": "< 6.25", "unit": "µg/mL"}]}
{"molecule": "CN1C(=O)/C(=N\\Nc2ccccc2[N+](=O)[O-])C(=O)c2ccccc21", "values": [{"measurement": "inhibition of growth at 6.25 µg/mL", "setting": "[1]", "result": 94, "unit": "%"}, {"measurement": "MIC", "setting": "[2]", "result": "< 6.25", "unit": "µg/mL"}]}
{"molecule": "O=C1Nc2c(ccc(Cl)c2Cl)C(=O)/C1=N/Nc1ccc([N+](=O)[O-])cc1", "values": [{"measurement": "inhibition of growth at 6.25 µg/mL", "setting": "[1]", "result": 89, "unit": "%"}, {"measurement": "MIC", "setting": "[2]", "result": "< 6.25", "unit": "µg/mL"}]}
{"molecule": "O=C1Nc2c(ccc(Cl)c2Cl)C(=O)/C1=N/Nc1ccccc1", "values": [{"measurement": "inhibition of growth at 6.25 µg/mL", "setting": "[1]", "result": 85, "unit": "%"}, {"measurement": "MIC", "setting": "[2]", "result": "< 6.25", "unit": "µg/mL"}]}
{"molecule": "O=C1Nc2c(cccc2[N+](=O)[O-])C(=O)/C1=N/Nc1ccc(Cl)cc1", "values": [{"measurement": "inhibition of growth at 6.25 µg/mL", "setting": "[1]", "result": 61, "unit": "%"}, {"measurement": "MIC", "setting": "[2]", "result": "< 6.25", "unit": "µg/mL"}]}
{"molecule": "Cc1ccccc1N/N=C1/C(=O)c2ccccc2N(C)C1=O", "values": [{"measurement": "inhibition of growth at 6.25 µg/mL", "setting": "[1]", "result": 97, "unit": "%"}, {"measurement": "MIC", "setting": "[2]", "result": "< 6.25", "unit": "µg/mL"}]}
{"molecule": "COc1ccccc1N/N=C1\\C(=O)Nc2cc([N+](=O)[O-])ccc2C1=O", "values": [{"measurement": "inhibition of growth at 6.25 µg/mL", "setting": "[1]", "result": 96, "unit": "%"}, {"measurement": "MIC", "setting": "[2]", "result": "< 6.25", "unit": "µg/mL"}]}
{"molecule": "O=C1Nc2ccc(Cl)cc2C(=O)/C1=N/Nc1cccc([N+](=O)[O-])c1", "values": [{"measurement": "inhibition of growth at 6.25 µg/mL", "setting": "[1]", "result": 96, "unit": "%"}, {"measurement": "MIC", "setting": "[2]", "result": "< 6.25", "unit": "µg/mL"}]}
{"molecule": "O=C1Nc2ccc(Cl)cc2C(=O)/C1=N/Nc1ccc(Cl)c(Cl)c1", "values": [{"measurement": "inhibition of growth at 6.25 µg/mL", "setting": "[1]", "result": 95, "unit": "%"}, {"measurement": "MIC", "setting": "[2]", "result": "< 6.25", "unit": "µg/mL"}]}
{"molecule": "Cc1ccc(N/N=C2\\C(=O)Nc3cc([N+](=O)[O-])ccc3C2=O)cc1", "values": [{"measurement": "inhibition of growth at 6.25 µg/mL", "setting": "[1]", "result": 92, "unit": "%"}, {"measurement": "MIC", "setting": "[2]", "result": "< 6.25", "unit": "µg/mL"}]}
{"molecule": "O=C1Nc2ccc(Cl)cc2C(=O)/C1=N/Nc1ccc([N+](=O)[O-])cc1", "values": [{"measurement": "inhibition of growth at 6.25 µg/mL", "setting": "[1]", "result": 91, "unit": "%"}, {"measurement": "MIC", "setting": "[2]", "result": "< 6.25", "unit": "µg/mL"}]}
{"molecule": "CC(=O)c1ccc(N/N=C2\\C(=O)Nc3c(cccc3[N+](=O)[O-])C2=O)cc1", "values": [{"measurement": "inhibition of growth at 6.25 µg/mL", "setting": "[1]", "result": 89, "unit": "%"}, {"measurement": "MIC", "setting": "[2]", "result": "< 6.25", "unit": "µg/mL"}]}
{"molecule": "O=C1Nc2c(cccc2[N+](=O)[O-])C(=O)/C1=N/Nc1ccc(F)c(Cl)c1", "values": [{"measurement": "inhibition of growth at 6.25 µg/mL", "setting": "[1]", "result": 85, "unit": "%"}, {"measurement": "MIC", "setting": "[2]", "result": "< 6.25", "unit": "µg/mL"}]}
{"molecule": "O=C1Nc2c(Cl)cccc2C(=O)/C1=N/Nc1ccccc1", "values": [{"measurement": "inhibition of growth at 6.25 µg/mL", "setting": "[1]", "result": 100, "unit": "%"}, {"measurement": "MIC", "setting": "[2]", "result": "< 6.25", "unit": "µg/mL"}]}
{"molecule": "O=C1Nc2cc([N+](=O)[O-])ccc2C(=O)/C1=N/Nc1ccc(F)cc1", "values": [{"measurement": "inhibition of growth at 6.25 µg/mL", "setting": "[1]", "result": 100, "unit": "%"}, {"measurement": "MIC", "setting": "[2]", "result": "< 6.25", "unit": "µg/mL"}]}
{"molecule": "O=C1Nc2c(cccc2[N+](=O)[O-])C(=O)/C1=N/Nc1ccccc1", "values": [{"measurement": "inhibition of growth at 6.25 µg/mL", "setting": "[1]", "result": 99, "unit": "%"}, {"measurement": "MIC", "setting": "[2]", "result": "< 6.25", "unit": "µg/mL"}]}
{"molecule": "CC(=O)c1ccc(N/N=C2\\C(=O)Nc3c(ccc(Cl)c3Cl)C2=O)cc1", "values": [{"measurement": "inhibition of growth at 6.25 µg/mL", "setting": "[1]", "result": 98, "unit": "%"}, {"measurement": "MIC", "setting": "[2]", "result": "< 6.25", "unit": "µg/mL"}]}
{"molecule": "CO[C@H]1/C=C/O[C@@]2(C)Oc3c(C)c(O)c4c(O)c(c(/C=N/N5CCN(C)CC5)c(O)c4c3C2=O)NC(=O)/C(C)=C\\C=C\\[C@H](C)[C@H](O)[C@@H](C)[C@@H](O)[C@@H](C)[C@H](OC(C)=O)[C@@H]1C", "note": "[RIFAMPIN]", "values": [{"measurement": "inhibition of growth at 6.25 µg/mL", "setting": "[1]", "result": 97, "unit": "%"}, {"measurement": "MIC", "setting": "[2]", "result": 0.015, "unit": "µg/mL"}]}
